# Test results: ChEMBL document CHEMBL1138858, “Small-molecule targeting of heat shock protein 90 chaperone function: rational identification of a new anticancer lead” (J Med Chem, 2006)
# Active and inactive are the calls of the source. No cut-off for these calls is given here.
# Experiments:
# [1] = Induction of apoptosis in JR8 cells after 72 hrs at 125 uM; type: functional, Homo sapiens
# [2] = Apoptotic activity against JR8 cells after 72 hrs; type: functional, Homo sapiens
# [3] = tested on: HeLa; test: Cytotoxicity against HeLa cells after 72 hrs; type: cell-based; conditions: Homo sapiens
# [4] = tested on: DU-145; test: Apoptotic activity against DU145 cells after 72 hrs; type: functional, Homo sapiens
# [5] = Cytotoxicity against human WI38 cells after 72 hrs; type: cell-based; conditions: wi-38, 72 h
# [6] = target: T1, Caspase-9 (Homo sapiens) (UniProt P55211); test: Activation of caspase 9 in DU145 cells assessed as hydrolysis of LEHD-pNA […] substrate; type: cell-based; conditions: DU-145
# T1 sequence (whole entry): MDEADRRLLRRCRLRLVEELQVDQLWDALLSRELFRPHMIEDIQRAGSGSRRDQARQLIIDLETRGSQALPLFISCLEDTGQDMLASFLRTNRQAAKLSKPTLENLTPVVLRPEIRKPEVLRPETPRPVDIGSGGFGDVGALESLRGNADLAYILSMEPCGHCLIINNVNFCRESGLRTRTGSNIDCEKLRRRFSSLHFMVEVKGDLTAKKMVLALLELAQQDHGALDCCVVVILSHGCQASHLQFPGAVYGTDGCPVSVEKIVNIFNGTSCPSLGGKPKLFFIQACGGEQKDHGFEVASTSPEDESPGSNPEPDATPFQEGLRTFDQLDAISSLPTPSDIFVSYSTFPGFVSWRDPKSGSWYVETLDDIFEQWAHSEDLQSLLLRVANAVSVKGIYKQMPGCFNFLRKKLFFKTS
# [7] = tested on: HeLa; test: Induction of apoptosis in HeLa cells after 72 hrs at 125 uM; type: functional, Homo sapiens
# [8] = target: T1, Caspase-9 (Homo sapiens); test: Activation of caspase 9 in HeLa cells assessed as hydrolysis of LEHD-pNA […] substrate; type: cell-based
# [9] = tested on: DU-145; test: Cytotoxicity against DU145 cells after 72 hrs; type: cell-based; conditions: Homo sapiens, DU-145, 72 h
# [10] = tested on: HeLa; test: Apoptotic activity against HeLa cells after 72 hrs; type: functional, Homo sapiens
# [11] = target: T2, Heat shock protein HSP90 (Homo sapiens) (UniProt P07900+P08238); test: Activity at Hsp90 in HeLa cells assessed as reduction in telomerase activity by TRAP assay relative to control; type: cell-based; parameters: scale not given: the % may be the effect or the level left
# [12] = target: T3, Caspase-3 (Homo sapiens) (UniProt P42574); test: Activation of caspase 3 in DU145 cells assessed as hydrolysis of DEVD-pNA […] substrate; type: cell-based; conditions: DU-145
# T3 sequence (whole entry): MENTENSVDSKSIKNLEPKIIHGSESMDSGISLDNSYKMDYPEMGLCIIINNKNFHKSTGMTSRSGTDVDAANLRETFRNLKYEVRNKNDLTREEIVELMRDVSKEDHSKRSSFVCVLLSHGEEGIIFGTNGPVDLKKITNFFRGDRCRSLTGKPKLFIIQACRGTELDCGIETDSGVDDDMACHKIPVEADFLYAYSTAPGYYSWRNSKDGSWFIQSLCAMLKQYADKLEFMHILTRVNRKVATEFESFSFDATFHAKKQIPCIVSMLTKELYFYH
# [13] = target: T2, Heat shock protein HSP90 (Homo sapiens); test: Activity at Hsp90 in DU145 cells assessed as reduction in telomerase activity by TRAP assay relative to control; type: cell-based; parameters: scale not given: the % may be the effect or the level left; conditions: DU-145
# [14] = target: T3, Caspase-3 (Homo sapiens); test: Activation of caspase 3 in HeLa cells assessed as hydrolysis of DEVD-pNA […] substrate; type: cell-based
# [15] = Cytotoxicity against JR8 cells after 72 hrs; type: cell-based; conditions: Homo sapiens, JR8, 72 h
# [16] = tested on: DU-145; test: Induction of apoptosis in DU145 cells after 72 hrs at 62.5 uM; type: functional, Homo sapiens
SMILES,Activity [1] [%],Activity [2] [%],IC50 [3] [µM],Activity [4] [%],Activity [5],Activity [6],Activity [7] [%],Activity [8],IC50 [9] [µM],Activity [10] [%],Activity [11] [%],Activity [12],Activity [13] [%],Activity [14],IC50 [15] [µM],Activity [16] [%]
NC(=O)c1ncn([C@@H]2O[C@H](COP(=O)(O)O)[C@@H](O)[C@H]2O)c1N,20,13,126,28,Not Active,Active,27,Active,59,23,70,Active,70,Active,105,34
C=CCNC1=C2C[C@@H](C)C[C@H](OC)[C@H](O)[C@@H](C)/C=C(\C)[C@H](OC(N)=O)[C@@H](OC)/C=C\C=C(/C)C(=O)NC(=CC1=O)C2=O [TANESPIMYCIN],,12,108,15.9,,,,,68.3,10.8,,,,,53.3,
